This passage reports IC50 results from patent US20170119776A1, “CHIRAL 2,5-DISUBSTITUTED CYCLOPENTANECARBOXYLIC ACID DERIVATIVES AND USE THEREOF” (BAYER PHARMA AKTIENGESELLSCHAFT, priority 2014, published 2017).

As a reminder, the IC50 is the concentration that inhibits the measured activity by half. Lower therefore signals greater potency.

Type in all cases: biochemical
One assay deals with T1, MMP-2 of the mouse (Mus musculus, UniProt P33434).
T1 construct: purchased R&D Systems 924-MP
The assay can be described thus: In vitro MMP-2 inhibition test of the mouse. The text has this:
(§1) The activity strength of the compounds according to the invention towards other MMPs (and therefore their selectivity) is likewise ascertained in in vitro inhibition tests. The MMP-mediated amidolytic cleavage of a suitable peptide substrate also leads here to a fluorescent light increase. The signal intensity of the fluorescent light is directly proportional to the enzyme activity. The active concentration of a test compound at which half of the enzyme is inhibited (50% signal intensity of the fluorescent light) is given as IC50 value.
(§2) Recombinant MMP-2 of the mouse (R&D Systems, 924-MP) is chemically activated in accordance with the manufacturer's instructions using APMA. 1 μl of the test compound to be analysed (as a solution in DMSO, suitable concentrations e.g. 1 nM to 30 μM) is pipetted into 24 μl of activated enzyme (final concentration e.g. 0.1 nM) in reaction buffer (50 mM Tris/HCl pH 7.5, 10 mM CaCl2, 150 mM NaCl, 0.05% Brij®-35) in a white 384-hole microtiter plate (MTP). The enzymatic reaction is started by adding the intramolecularly quenched substrate Mca-Pro-Leu-Gly-Leu-Dpa(Dnp)-Ala-Arg-NH2 (final concentration e.g. 10 μM; R&D Systems, ES-001), such that a total test volume of 50 μl results. The progress of the MMP-2 reaction is measured by measuring the fluorescence intensity (excitation 320 nm, emission 410 nm) over a suitable period (e.g. over 120 min at a temperature of 32° C.).
(§3) Tables 3A and 3B below give the IC50 values from these tests for the inhibition of rodent MMPs for representative embodiment examples of the present invention and also for two structurally related comparison compounds from the prior art (as racemate and separated enantiomer)→(in part as average values from several independent individual determinations and rounded to two significant places). The IC50 values were determined for racemates and enantiomers from differently generated DMSO stock solutions. Whereas an automatically created DMSO stock solution from the internal substance logistics was used for racemates by means of a standard method, in the case of enantiomers, in each case a freshly produced, manually prepared DMSO stock solution was used for a more precise direct comparison of the enantiomers with one another.

The target of the next assay is T2, MMP-2 (Homo sapiens, UniProt P08253).
T2 construct: purchased R&D Systems 902-MP
T2 sequence (P08253 110-660): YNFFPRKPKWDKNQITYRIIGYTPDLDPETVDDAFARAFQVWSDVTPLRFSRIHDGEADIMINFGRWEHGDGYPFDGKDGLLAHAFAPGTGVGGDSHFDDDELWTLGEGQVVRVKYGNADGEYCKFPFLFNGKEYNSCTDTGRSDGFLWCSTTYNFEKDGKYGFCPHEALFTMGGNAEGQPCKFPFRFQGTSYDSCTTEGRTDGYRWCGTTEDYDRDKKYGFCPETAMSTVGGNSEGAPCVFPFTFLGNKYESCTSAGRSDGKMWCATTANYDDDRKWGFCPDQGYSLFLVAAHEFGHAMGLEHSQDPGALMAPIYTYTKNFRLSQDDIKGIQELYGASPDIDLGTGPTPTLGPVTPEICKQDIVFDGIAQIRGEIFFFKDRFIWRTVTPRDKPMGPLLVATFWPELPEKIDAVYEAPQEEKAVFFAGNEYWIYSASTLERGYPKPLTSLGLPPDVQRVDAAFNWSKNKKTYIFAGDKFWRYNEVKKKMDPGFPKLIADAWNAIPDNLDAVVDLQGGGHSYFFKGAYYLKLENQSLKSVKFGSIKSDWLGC
As to the kind of experiment: In vitro MMP-2 inhibition test.
Excerpt: as §1
as §2, with “MMP-2” for “MMP-2 of the mouse”, “902-MP)” for “924-MP)”, “2” for “0.1”
The IC50 values were determined for racemates and enantiomers from differently generated DMSO stock solutions. Whereas an automatically produced DMSO stock solution from the internal substance logistics was used for racemates by means of a standard method, in the case of enantiomers a freshly produced, manually prepared DMSO stock solution was used in each case for a more precise direct comparison of the enantiomers with one another.

The next assay addresses T3, MMP-12 of the mouse (Mus musculus, UniProt P34960).
T3 construct: purchased R&D Systems 3467-MP
The assay can be described thus: In vitro MMP-12 inhibition test of the mouse (standard / high-sensitivity).
Excerpt: as §1
Recombinant MMP-12 of the mouse (R&D Systems, 3467-MP) is autocatalytically activated in accordance with the manufacturer's instructions. 1 μl of the test compound to be analysed (as a solution in DMSO, suitable concentrations e.g. 1 nM to 30 μM) is pipetted into 24 μl of activated enzyme (final concentration e.g. 1 nM) in reaction buffer (50 mM Tris/HCl pH 7.5, 10 mM CaCl2, 150 mM NaCl, 0.05% Brij®-35) in a white 384-hole microtiter plate (MTP). The enzymatic reaction is started by adding the intramolecularly quenched substrate Mca-Lys-Pro-Leu-Gly-Leu-Dpa(Dnp)-Ala-Arg-NH2 (final concentration e.g. 5 μM; R&D Systems, ES-010), such that a total test volume of 50 μl results. The progress of the MMP-12 reaction is measured by measuring the fluorescence intensity (excitation 320 nm, emission 410 nm) over a suitable period (e.g. over 120 min at a temperature of 32° C.).
If subnanomolar IC values are produced for high-potency test substances in the above-described MMP-12 inhibition test of the mouse, then a modified test is used for their more precise determination. Here, a ten-fold lower enzyme concentration is used (final concentration e.g. 0.1 nM), in order to achieve an increased sensitivity of the test. The incubation time of the test is correspondingly chosen to be longer (e.g. 16 hours).
as §3

T3 sequence (P34960 110-473): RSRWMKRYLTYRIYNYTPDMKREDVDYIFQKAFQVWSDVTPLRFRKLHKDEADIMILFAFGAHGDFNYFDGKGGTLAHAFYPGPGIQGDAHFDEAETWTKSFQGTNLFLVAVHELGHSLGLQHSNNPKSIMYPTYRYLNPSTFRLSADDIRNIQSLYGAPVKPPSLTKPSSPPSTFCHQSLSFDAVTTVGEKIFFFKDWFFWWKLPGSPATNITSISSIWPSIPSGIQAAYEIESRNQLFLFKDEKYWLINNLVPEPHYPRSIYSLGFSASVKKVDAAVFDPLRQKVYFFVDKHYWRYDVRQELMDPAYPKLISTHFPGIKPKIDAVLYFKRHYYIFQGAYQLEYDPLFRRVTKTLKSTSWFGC
T1 sequence (P33434 110-662): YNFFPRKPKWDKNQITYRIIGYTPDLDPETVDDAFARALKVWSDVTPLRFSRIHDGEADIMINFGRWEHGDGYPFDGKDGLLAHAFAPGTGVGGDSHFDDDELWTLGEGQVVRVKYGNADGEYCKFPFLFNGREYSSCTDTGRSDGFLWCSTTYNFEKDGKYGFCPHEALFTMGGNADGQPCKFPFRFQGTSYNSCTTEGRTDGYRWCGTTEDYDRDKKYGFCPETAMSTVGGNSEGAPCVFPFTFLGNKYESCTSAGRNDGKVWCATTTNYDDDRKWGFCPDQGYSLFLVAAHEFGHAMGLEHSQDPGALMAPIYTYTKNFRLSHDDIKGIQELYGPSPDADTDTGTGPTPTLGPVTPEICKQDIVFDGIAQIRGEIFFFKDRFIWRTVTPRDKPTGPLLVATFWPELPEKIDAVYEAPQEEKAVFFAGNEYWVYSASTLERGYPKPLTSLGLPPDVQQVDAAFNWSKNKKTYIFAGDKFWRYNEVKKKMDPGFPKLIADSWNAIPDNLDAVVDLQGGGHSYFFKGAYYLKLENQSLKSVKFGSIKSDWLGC

On to `O=C(O)[C@H]1[C@H](Cn2nnc3ccccc3c2=O)CC[C@@H]1C(=O)c1ccc(-c2ccc(Cl)cc2)cc1` (racemic) [Comparative Example A-1, (1RS,2RS,5SR)-2-[(4′-chlorobiphenyl-4-yl)carbonyl]-5-[(4-oxo-1,2,3-benzotriazin-3(4H)-yl)methyl]cyclopentanecarboxylic acid (racemate)], for which the IC50 on MMP-2 of the mouse was 0.0013 µM; against MMP-2 it was 0.0011 µM; at MMP-12 of the mouse it was under 0.00061 µM.
The like results for `CCCCCOc1ccc(C(=O)CC(CCn2nnc3ccccc3c2=O)C(=O)O)cc1` (single isomer, unassigned; enantiomer 1) [Comparative Example B-2, (+)-4-Oxo-2-[2-(4-oxo-1,2,3-benzotriazin-3(4H)-yl)ethyl]-4-[4-(pentyloxy)phenyl]butanoic acid (enantiomer 1)] were, in that order, 0.145 µM, 0.12 µM and 0.018 µM.
For `CCCCCOc1ccc(C(=O)CC(CCn2nnc3ccccc3c2=O)C(=O)O)cc1` (racemic) [Comparative Example B-1, (+/−)-4-Oxo-2-[2-(4-oxo-1,2,3-benzotriazin-3(4H)-yl)ethyl]-4-[4-(pentyloxy)phenyl]butanoic acid (racemate)] the same measures were 0.61 µM, 0.45 µM and 0.032 µM.
The like results for `O=C(O)[C@@H]1[C@@H](Cn2nnc3ccccc3c2=O)CC[C@H]1C(=O)c1ccc(-c2ccc(Cl)cc2)cc1` (single isomer, unassigned; enantiomer 2) [Comparative Example A-3, (1RS,2RS,5SR)-2-[(4′-Chlorobiphenyl-4-yl)carbonyl]-5-[(4-oxo-1,2,3-benzotriazin-3(4H)-yl)methyl]cyclopentanecarboxylic acid (enantiomer 2)] were, in that order, under 0.00061 µM, 0.0007 µM and 0.0001 µM.
As to `O=C(O)[C@H]1[C@H](Cn2nnc3ccccc3c2=O)CC[C@@H]1C(=O)c1ccc(OCc2ccccc2)cc1` [Example 2, (+)-(1S,2S,5R)-2-[4-(Benzyloxy)benzoyl]-5-[(4-oxo-1,2,3-benzotriazin-3(4H)-yl)methyl]cyclopentanecarboxylic acid], the IC50 at MMP-2 of the mouse was 0.0165 µM; against MMP-2, 0.0118 µM; at MMP-12 of the mouse, 0.00013 µM.
The like results for `O=C(O)[C@H]1[C@H](Cn2nnc3ccccc3c2=O)CC[C@@H]1C(=O)c1ccc(OCc2ccccc2)cc1` (racemic) [Example 1, (+/−)-(1RS,2RS,5SR)-2-[4-(Benzyloxy)benzoyl]-5-[(4-oxo-1,2,3-benzotriazin-3(4H)-yl)methyl]cyclopentanecarboxylic acid (racemate)] were, in that order, 0.033 µM, 0.018 µM and 0.00054 µM.
